Measured values as given in patent publication US6153611A, “Piperazinyl-cyclohexanes and cyclohexenes” (Bristol-Myers Squibb Company, priority 1993, dated 2000).
Where two headings read alike, the source gives them in different places.

What was measured:
Dopamine D2 = molecular target: T1, Dopamine D2 (Rattus norvegicus, UniProt P61169); assay: Dopamine D2 Binding Assay ([3H]Spiperone, corpus striatum membranes); parameters: species or system male Sprague-Dawley rats; settings: [3H]Spiperone 0.1 nM, 37° C., 15 min
T1 construct: The corpus striatum was crudely dissected and frozen on dry ice; from tissue; host or cells: rat corpus striatum membranes (male Sprague-Dawley rats, Charles River)
T1 sequence (P61169 whole entry): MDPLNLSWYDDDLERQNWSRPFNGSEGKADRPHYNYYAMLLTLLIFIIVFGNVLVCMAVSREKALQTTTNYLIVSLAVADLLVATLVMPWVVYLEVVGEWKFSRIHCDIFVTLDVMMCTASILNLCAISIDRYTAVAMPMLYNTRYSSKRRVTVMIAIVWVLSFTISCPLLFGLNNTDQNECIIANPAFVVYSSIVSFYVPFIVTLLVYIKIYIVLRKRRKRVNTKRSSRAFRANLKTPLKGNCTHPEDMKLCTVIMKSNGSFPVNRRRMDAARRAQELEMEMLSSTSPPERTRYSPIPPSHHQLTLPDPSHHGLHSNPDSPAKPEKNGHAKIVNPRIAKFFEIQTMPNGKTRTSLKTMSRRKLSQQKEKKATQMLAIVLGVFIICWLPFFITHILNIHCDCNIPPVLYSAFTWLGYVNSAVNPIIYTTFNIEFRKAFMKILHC
Procedure: Activity at D2 sites is measured using the screening process set out in Example 67.
Dopamine D2 Binding Assay
Dopamine D2 affinity was determined according to the procedures of Burt, Creese and Snyder [Molecular Pharmacology 12,800 (1976); Science 196, 326 (1977); Science 192, 481 (1976)]. Briefly, male Sprague-Dawley rats (Charles River) were decapitated, brains rapidly removed and chilled in ice-cold 50 mM Hepes/KOH buffer (pH 7.4, 20° C.). The corpus striatum was crudely dissected and frozen on dry ice. Tissue was pooled and stored at -80° C. until use. On the day of assay, tissue was thawed in 20 ml ice-cold Hepes/KOH buffer, and homogenized with a polytron for 15 sec at 18,000 rpm. The homogenate was centrifuged (39,000×g, 10 min, at 4° C.). The supernatant was discarded and the pellet rehomogenized in ice-cold Hepes/KOH buffer and recentrifuged as described previously. The supernatant was again discarded and the pellet resuspended (1:100) in ice-cold Hepes/KOH buffer (pH 7.4, 20° C., containing 120 mM NaCl, 5 mM KCl, 1 mM MgCl2, 0.1% (w/v) ascorbic acid, and 10 μM pargylline, and stored on ice until assay. The binding assay (1 ml total volume) was performed in duplicate and initiated by the addition of 800 μl membrane homogenate to tubes containing 100 μl [^3 H]Spiperone (0.1 nM final concentration), and 100 μl competitor, buffer, or butaclamol, which was used to define the non-specific binding. The assay was incubated at 37° C. for 15 min, afterwhich the assay was terminated by rapid filtration.
In vitro IC50 test values for binding to the D2 receptor were determined for representative compounds of Formula I by the method of Burt, Creese, and Snyder, Molecular Pharmacology 12, 800 (1976); Creese, Burt, and Snyder, Science 196, 326 (1977); and Creese, Burt and Snyder, Science 192, 481 (1976). Test IC50 values greater than 1,000 nM are considered to reflect inactivity at the D2 receptor, indicating the risk of extrapyramidal side effects is small.

sigma receptor = molecular target: T2, sigma receptor (Cavia porcellus, UniProt Q60492); assay: Sigma binding (method of Tam and Cook)
T2 construct: from tissue
T2 sequence (Q60492 whole entry): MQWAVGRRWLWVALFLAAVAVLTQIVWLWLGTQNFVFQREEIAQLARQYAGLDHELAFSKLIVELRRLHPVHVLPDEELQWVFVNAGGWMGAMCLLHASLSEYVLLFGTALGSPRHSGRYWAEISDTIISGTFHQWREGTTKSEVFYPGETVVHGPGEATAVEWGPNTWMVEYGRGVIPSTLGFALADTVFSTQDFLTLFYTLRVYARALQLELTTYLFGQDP
Procedure: In vitro IC50 test values for binding to the sigma receptor were determined for representative compounds of Formula I by the method of Tam and Cook [see: Tam, S. W., and Cook, L: Proc. Natl. Acad. Sci. USA 81, 5618-5621 (1984)] with only minor modifications. Test IC50 values lower than 100 nM are considered to reflect activity at the sigma receptor.

brain ischemia = assay: Anoxic Nitrogen Test in Rats; assay type: in vivo, male Sprague-Dawley rats; settings: Rattus norvegicus, sc, subcutaneously, 2 hr survival, read-out: Nitrogen Anoxia % Survival
Description: Most specifically, administration of the compounds of Formula I results in protection against hypoxia-induced death in an anoxic nitrogen test in rats (Example 66). The test identifies the neuro-protective effects of substances against lethal brain damages produced by a lack of oxygen consumption (anoxia). In this test procedure, control animals exposed for one minute to a pure nitrogen atmosphere will expire because of respiratory failure caused by irreversible damage to the brain respiratory center.
Anoxic Nitrogen Test in Rats
The animals utilized are male Sprague-Dawley rats (200-400 grams) housed four animals per cage in a normal controlled environment with unlimited access to food and water. Usually there are 8 animals per dose, however, […] can be employed to obtain an initial impression of a compound's activity. Animals are parenterally or orally administered the vehicle or test compound 30 minutes before the anoxic insult. The anoxic episode consists of placing up to 8 animals in the sealed test chamber (10" l×10" w×6" h) continuously flushed with pure N2 (4.5 grade) at a flow rate of 5 SCFM for 1 min. Animals are then promptly removed to normal atmosphere and observed for the 2 hour period. Typically, animals become disoriented within 15 sec after which they remain motionless.
Even though the heart is still beating after the N2 exposure, all control animals fail to gasp when removed from the chamber and usually expire within 3 minutes. Drug treated animals, however, still gasp or start gasping after being removed, which is a good indication that the animals will survive the N2 exposure [see Wauquire, A., et al: Arch. Int. Pharmacodyn., 249, 330-334 (1981); Wauquier, A., et al: Drug Dev. Res., 8, 373-380 (1986)]. Results are recorded as:
(Number of animals surviving (2 hr))/(Number of animals tested)×100%
The anoxic nitrogen test is an in vivo model of brain ischemia in rats [see: Wauquire, A., et al: Arch. Int. Pharmacodyn., 249, 330-334 (1981); Wauquier, A., et al: Drug Dev. Res., 8, 373-380 (1986)]. Compounds of the present invention are active in this in vivo model of brain ischemia when given subcutaneously in the doses indicated in Table 2, thus providing additional evidence that the present compounds will be useful in the treatment of brain ischemia.

`Fc1ccc(C2=CCC(N3CCN(Cc4ccccc4)CC3)CC2)cc1` (stereo not drawn) [Example 35, 1-[4-(4-Fluorophenyl)-3-cyclohexen-1-yl]-4-(phenylmethyl)-piperazine] was tested, and the IC50 (Dopamine D2) was 50 to 100 µM, the IC50 (sigma receptor) was 1.9 nM and the responders at 15 mg/kg (brain ischemia; 15 & 20 mg/kg) was 100%.

With `Fc1ccc(C2=CCC(N3CCN(Cc4ccccc4)CC3)CC2)c2ccccc12` (stereo not drawn) [Example 36, 1-[4-(4-Fluoro-1-naphthalenyl)-3-cyclohexen-1-yl]-4-(phenylmethyl)piperazin] the IC50 (Dopamine D2) was 1 to 10 µM and the responders at 50 mg/kg (brain ischemia; 50 mg/kg) was 100%.

Work on `C1=C(c2ccc3c(c2)OCO3)CCC(N2CCN(Cc3ccccc3)CC2)C1` (stereo not drawn) [Example 37, 1-[4-(1,3-Benzodioxol-5-yl)-3-cyclohexen-1-yl]-4-(phenylmnethyl) piperazine] yielded an IC50 (Dopamine D2) of 10 to 50 µM, an IC50 (sigma receptor) of 1.9 nM and a responders at 40 mg/kg (brain ischemia) of 92%.

Compound `C1=C(c2nc3ccccc3s2)CCC(N2CCN(Cc3ccccc3)CC2)C1` (stereo not drawn) [Example 38, 1-[4-(2-Benzothiazolyl)-3-cyclohexen-1-yl]-4-(phenylmethyl)piperazine] has an IC50 (Dopamine D2) of 10 to 50 µM, an IC50 (sigma receptor) of 3.9 nM and a responders at 80 mg/kg (brain ischemia; 80 mg/kg) of 100%.

In the case of `COc1ccc(C2=CCC(N3CCN(Cc4ccccc4)CC3)CC2)cc1` (stereo not drawn) [Example 39, 1-[4-(4-Methoxyphenyl)-3-cyclohexen-1-yl]-4-(phenylmethyl)piperazine], the IC50 (Dopamine D2) is reported as 1 to 10 µM, the IC50 (sigma receptor) is reported as 0.9 nM and the responders at 20 mg/kg (brain ischemia; 20 & 30 mg/kg) is reported as 92%.

In the case of `FC(F)(F)c1ccc(C2=CCC(N3CCN(Cc4ccccc4)CC3)CC2)cc1` (stereo not drawn) [Example 40, 1-(Phenylmethyl)-4-[4-[4-(trifluoromethyl)phenyl]-3-cyclohexen-1-yl]piperazine], the IC50 (Dopamine D2) is reported as 10 to 50 µM, the IC50 (sigma receptor) is reported as 4.5 nM and the responders at 10 mg/kg (brain ischemia) is reported as 100%.

In the case of `Fc1ccc(CN2CCN(C3CC=C(c4ccc(F)cc4)CC3)CC2)cc1` (stereo not drawn) [Example 41, 1-[4-(4-Fluorophenyl)-3-cyclohexen-1-yl]-4-[(4-fluorophenyl)methyl]piperazine], the IC50 (Dopamine D2) is reported as 1 to 10 µM, the IC50 (sigma receptor) is reported as 0.6 nM and the responders at 20 mg/kg (brain ischemia; 20 mg/kg) is reported as 92%.

In the case of `Fc1ccc(CN2CCN(C3CC=C(c4ccc(C(F)(F)F)cc4)CC3)CC2)cc1` (stereo not drawn) [Example 42, 1-[(4-Fluorophenyl)methyl]-4-[4-[4-(trifluoromethyl)phenyl]-3-cyclohexen-1-yl]piperazine], the IC50 (Dopamine D2) is reported as greater than 100 µM, the IC50 (sigma receptor) is reported as 6.9 nM and the responders at 20 mg/kg (brain ischemia; 20 mg/kg) is reported as 100%.

Compound `C1=C(Cc2ccccc2)CCC(N2CCN(Cc3ccccc3)CC2)C1` (stereo not drawn) [Example 43, 1-(Phenylmethyl)-4-[4-(phenylmethyl)-3-cyclohexen-1-yl]piperazine] has an IC50 (Dopamine D2) of 1 to 10 µM, an IC50 (sigma receptor) of 2.1 nM and a responders at 5 mg/kg (brain ischemia; 5 mg/kg) of 75%.

For `Fc1ccc(C2=CCC(N3CCN(Cc4cccs4)CC3)CC2)cc1` (stereo not drawn) [Example 44, 1-[4-(4-Fluorophenyl)-3-cyclohexen-1-yl]-4-(2-thienylmethyl)piperazine], the IC50 (Dopamine D2) was 1 to 10 µM and the responders at 40 mg/kg (brain ischemia) was 100%.

With `Fc1ccc(C2=CCC(N3CCN(Cc4ccc5ccccc5n4)CC3)CC2)cc1` (stereo not drawn) [Example 45, 2{{4-[4-(4-Fluorophenyl)-3-cyclohexen-1-yl]-1-piperazinyl]methyl]quinoline] the IC50 (Dopamine D2) was 1 to 10 µM and the responders at 20 mg/kg (brain ischemia; 20 mg/kg) was 83%.

For `Fc1ccc(C2=CCC(N3CCN(Cc4ccncc4)CC3)CC2)cc1` (stereo not drawn) [Example 46, 1-[4-(4-Fluorophenyl)-3-cyclohexen-1-yl]-4-(4-pyridinylmethyl)piperazine], the IC50 (Dopamine D2) was 50 to 100 µM, the IC50 (sigma receptor) was 0.5 nM and the responders at 20 mg/kg (brain ischemia; 20 mg/kg) was 83%.

`Fc1ccc(C2=CCC(N3CCC(Cc4ccccc4)CC3)CC2)cc1` (stereo not drawn) [Example 47, 1-[4-(4-Fluorophenyl)-3-cyclohexen-1-yl]-4-(phenylmethyl)piperidine] showed an IC50 (Dopamine D2) of 1 to 10 µM, an IC50 (sigma receptor) of 4 nM and a responders at 40 mg/kg (brain ischemia) of 88%.

With `COc1ccc2[nH]cc(C3=CCC(N4CCN(Cc5ccccc5)CC4)CC3)c2c1` (stereo not drawn) [Example 48, 5-Methoxy-3-[4-[4-(phenylmethyl)-1-piperazinyl]-1-cyclohexen-1-yl]-1H-indole] the IC50 (Dopamine D2) was 1 to 10 µM, the IC50 (sigma receptor) was 6.2 nM and the responders at 40 mg/kg (brain ischemia) was 88%.

For `Fc1ccccc1CC1CCN(C2CC=C(c3ccc4c(c3)OCO4)CC2)CC1` (stereo not drawn) [Example 53, 1-[4-(1,3-Benzodioxol-5-yl)-3-cyclohexen-1-yl]-4-[(2-fluorophenyl)methyl]piperidine], the IC50 (Dopamine D2) was 1 to 10 µM.

For `Fc1ccc(F)c(CC2CCN(C3CC=C(c4ccc(F)c(F)c4)CC3)CC2)c1` (stereo not drawn) [Example 55, 1-[4-(3,4-Difluorophenyl)-3-cyclohexen-1-yl]-4-[(2,5-difluorophenyl)methyl]piperidine], the IC50 (Dopamine D2) was 1 to 10 µM.

For `C1=C(c2ccc3c(c2)OCCO3)CCC(N2CCN(Cc3ccccc3)CC2)C1` (stereo not drawn) [Example 56, 1-[4-(1,4-Benzodioxan-6-yl)-3-cyclohexen-1-yl]-4-(phenylmethyl)piperazine], the responders at 10 mg/kg (brain ischemia) was 100%.

`Clc1ccccc1CN1CCN(C2CC=C(c3ccc4c(c3)OCO4)CC2)CC1` (stereo not drawn) [Example 57, 1-[4-(1,3-Benzodioxol-5-yl)-3-cyclohexen-1-yl]-4-[(2-chlorophenyl)methyl]piperazine] showed an IC50 (Dopamine D2) of 1 to 10 µM and a responders at 10 mg/kg (brain ischemia) of 25%.

`Fc1ccc(F)c(CN2CCN(C3CC=C(c4ccc5c(c4)OCO5)CC3)CC2)c1` (stereo not drawn) [Example 58, 1-[4-(1,3-Benzodioxol-5-yl)-3-cyclohexen-1-yl]-4-[(2,5-difluorophenyl)methyl]piperazine] was tested, and the IC50 (Dopamine D2) was 1 to 10 µM and the responders at 10 mg/kg (brain ischemia) was 62%.

`COc1cccc(CN2CCN(C3CC=C(c4ccc5c(c4)OCO5)CC3)CC2)c1` (stereo not drawn) [Example 59, 1-[4-(1,3-Benzodioxol-5-yl)-3-cyclohexen-1-yl]-4-[(3-methoxyphenyl)methyl]piperazine] was tested, and the IC50 (Dopamine D2) was 1 to 10 µM and the responders at 10 mg/kg (brain ischemia) was 75%.

`Ic1ccc(I)c(CN2CCN(C3CC=C(c4ccc5c(c4)OCO5)CC3)CC2)c1` (stereo not drawn) [Example 61, 1-[4-(1,3-Benzodioxol-5-yl)-3-cyclohexen-1-yl]-4-[(2,5-diiodophenyl)methyl]piperazine] gave an IC50 (Dopamine D2) greater than 100 µM.

In the case of `Fc1ccc([C@H]2CC[C@H](N3CCN(Cc4ccc5ccccc5n4)CC3)CC2)cc1` [Example 64, Trans 2-{{4-[4-(4-fluorophenyl)-1-cyclohexyl]-1-piperazinyl}methyl]quinoline], the IC50 (Dopamine D2) is reported as 1 to 10 µM and the responders at 5 mg/kg (brain ischemia; 5 & 20 mg/kg) is reported as 83%.
